Measurements from article PMC10394516, “The pharmacokinetic profile of brensocatib and its effect on pharmacodynamic biomarkers including NE, PR3, and CatG in various rodent species” (Frontiers in Pharmacology, 2023).

Experiments:
Type in all cases: in vivo
[1] = test system: NE; assay: Bone marrow NE activity after repeated dosing, C57BL/6 mice; details: 7 days
Procedure: (§1) Briefly, animals were weighed and randomized into different treatment groups. In total, three different dosing levels of brensocatib were tested in each species and strain; each QD dosing level was equivalent to 1.5-times the matching daily BID dose. For BID dosing, the second daily dose was administered 8-h post the morning dose. C57BL/6 mice were dosed either BID or QD for 7 consecutive days at 0/0, 0.5/0.75, 2/3, and 20/30 mg/kg/day (BID/QD). BALB/c mice were dosed for 7 consecutive days at 0/0, 0.2/0.3, 2/3, and 20/30 mg/kg/day (BID/QD). SD rats were dosed for 9 consecutive days at 0/0, 0.2/0.3, 2/3, and 20/30 mg/kg/day (BID/QD). Wistar rats were dosed for 7 consecutive days at 0/0, 0.2/0.3, 2/3, and 20/30 mg/kg/day (BID/QD).
(§2) At the completion of the study, animals were sacrificed 16–24 h post their final dose. The hind limb bones (femurs and tibias) were collected at necropsy for bone marrow analysis of NSP activities by kinetic enzymatic assays ([Basso et al., 2022]). See section Quantification of Bone Marrow NSP Activities for details.
(§3) For the mice, each animal had the femurs and tibias of both hind limbs harvested. For the rat, the femur and tibia from a single hind limb per animal was harvested. Bones were kept on wet ice until processing for bone marrow collection. In brief, bone cutters were used to cut the epiphysis (knobby ends) off the long bones to expose the bone marrow filled cavity. Each bone cavity was then flushed with 5 mL/bone (mouse) or 10 mL/bone (rat) of ice-cold RPMI media through a […] and collected in a 50-mL conical tube. Cells were spun down at 2,500 × g at 4°C for 5 min and the supernatant was aspirated. After which, bone marrow cells were lysed with 1X red blood cell (RBC) lysis buffer (Abcam, ab204733) to eliminate contaminating RBCs and washed with PBS to remove any residual RBC lysis buffer. The resulting white blood cells (WBC) were subsequently lysed with 1% (v/v) Triton X-100 in PBS. Lysates were added to 96-well plates and stored at −80°C until NSP analyses.
(§4) Bone marrow lysates prepared as described above were diluted and plated onto 96-well assay plates to quantify NSP activities as described previously ([Basso et al., 2022]). Briefly, peptide substrates for NE (N-Methoxysuccinyl-Ala-Ala-Pro-Val-7-amido-4-methylcoumarin; Sigma; St. Louis, MO; Excitation/Emission at 350/450 nm), PR3 ((7-Methoxycoumarin-4-yl)acetyl-lysyl-(picolinoyl)-Tyr-Asp-Ala-Lys-Gly-Asp-N-3-(2-4-dinitrophenyl)-2-3-diaminopropyonyl-NH2); GenScript; Piscataway, NJ; Excitation/Emission at 340/430 nm), and CatG (N-Succinyl-Ala-Ala-Pro-Phe p nitroanilide; Sigma; Absorbance at 405 nm) were added at a final assay concentration of 100 μM, 40 μM, and 200 μM, respectively, and either fluorescence or absorbance was quantified using a Synergy microplate reader (BioTek; Winooski, VT). The specific NSP activity in each sample was calculated as the total activity minus the activity in the presence of a specific NSP inhibitor (if used), including elastase inhibitor (Abcam) for NE, sivelestat (Abcam) for PR3, and cathepsin G inhibitor I (Cayman Chemical; Ann Arbor, MI) for CatG. NSP concentrations were interpolated based on their activities relative to the standard curves created using active human NE protein (Sigma), active human PR3 protein (Sigma), and active human CatG protein (Sigma), respectively. Due to unavailability of commercial mouse and/or rat NE, PR3, and CatG proteins, the corresponding human proteins were used instead since their catalytic ability is considered to be conserved across species. A portion of each cell lysate sample was retained for protein quantification using a Pierce™ BCA Protein Assay Kit (Thermo Fisher). The NSP activities were normalized for the cell lysate protein concentrations.
(§5) The Pierce™ BCA Protein Assay Kit was used to measure the total protein of the samples after lysis to allow for subsequent normalization. […]

[2] = test system: NE; assay: Bone marrow NE activity after repeated dosing, Sprague Dawley rats; details: for Reduction of NE activity vs vehicle / Change From Vehicle Control (%) NE: 9 days
Procedure: as §1, §2, §3, §4, §5

[3] = test system: CatG; assay: Bone marrow CatG activity after repeated dosing, Wistar rats; details: for Reduction of CatG activity vs vehicle / Change From Vehicle Control (%) CatG: 7 days
Procedure: as §1, §2, §3, §4, §5

[4] = BID highest dose (20 mg/kg/day)
[5] = highest dose level 20/30 (BID/QD) mg/kg/day

Cn1c(=O)oc2ccc(-c3ccc(C[C@@H](C#N)NC(=O)[C@@H]4CNCCCO4)cc3)cc21 [brensocatib]
Reduction of NE activity vs vehicle [1, 4]: 85%
Reduction of NE activity vs vehicle ([1]; QD highest dose (30 mg/kg/day)): 71%
Change From Vehicle Control (%) NE ([1]; oral BID 0.5 mg/kg/day, 16 h post final dose): −20% (p = 0.1494)
Change From Vehicle Control (%) NE ([1]; oral BID 2 mg/kg/day, 16 h post final dose): −71% (p < 0.0001)
Change From Vehicle Control (%) NE ([1]; oral BID 20 mg/kg/day, 16 h post final dose): −85% (p < 0.0001)
Change From Vehicle Control (%) NE ([1]; oral QD 0.75 mg/kg/day, 24 h post final dose): −9% (p = 0.8092)
Change From Vehicle Control (%) NE ([1]; oral QD 3 mg/kg/day, 24 h post final dose): −55% (p < 0.0001)
Change From Vehicle Control (%) NE ([1]; oral QD 30 mg/kg/day, 24 h post final dose): −71% (p < 0.0001)
Reduction of NE activity vs vehicle [2, 4]: 38%
Reduction of NE activity vs vehicle ([2]; QD highest dose (30 mg/kg/day)): 36%
Combined BID and QD percent reduction, NE [2, 5]: 37%
Change From Vehicle Control (%) NE ([2]; oral BID 0.2 mg/kg/day): +6% (p = 0.6846)
Change From Vehicle Control (%) NE ([2]; oral BID 2 mg/kg/day): −18% (p = 0.0243)
Change From Vehicle Control (%) NE ([2]; oral BID 20 mg/kg/day): −38% (p < 0.0001)
Change From Vehicle Control (%) NE ([2]; oral QD 0.3 mg/kg/day): −2% (p = 0.9973)
Change From Vehicle Control (%) NE ([2]; oral QD 3 mg/kg/day): −19% (p = 0.2196)
Change From Vehicle Control (%) NE ([2]; oral QD 30 mg/kg/day): −36% (p = 0.0078)
Reduction of CatG activity vs vehicle [3, 4]: 32%
Reduction of CatG activity vs vehicle ([3]; QD highest dose (30 mg/kg/day)): 41%
Combined BID and QD percent reduction, CatG [3, 5]: 37%
Change From Vehicle Control (%) CatG ([3]; oral BID 0.2 mg/kg/day): −14% (p = 0.7146)
Change From Vehicle Control (%) CatG ([3]; oral BID 2 mg/kg/day): −16% (p = 0.6392)
Change From Vehicle Control (%) CatG ([3]; oral BID 20 mg/kg/day): −32% (p = 0.1106)
Change From Vehicle Control (%) CatG ([3]; oral QD 0.3 mg/kg/day): +5% (p = 0.9843)
Change From Vehicle Control (%) CatG ([3]; oral QD 3 mg/kg/day): −35% (p = 0.0605)
Change From Vehicle Control (%) CatG ([3]; oral QD 30 mg/kg/day): −41% (p = 0.0202)
